Test systems include NCI-H460 lung; OVCAR-8 ovarian; RPMI-8226 leukemia; SN12C renal; MALME-3M melanoma; UO-31 renal; COLO 205 colon; CAKI-1 renal; TK-10 renal; EKVX NSCLC.
Common to all, as to assay: NCI anticancer screen, dose series, 48 h

Where “and” joins values, the source holds several entries; their conditions need not be identical. Equal entries are not always repeated.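 In this assay, cells in 96-well plates receive the compound at five concentrations for 48 hours. Endpoints are linearly interpolated between the surrounding concentrations. GI50 = concentration required for 50% inhibition of growth. Definition used: TGI = concentration required for complete inhibition of growth.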

In the case of `C=C1C(=O)O[C@H]2[C@H]1CC/C(COC(=O)c1cc3cc(F)ccc3[nH]1)=C\CC[C@@]1(C)O[C@@H]21`, the GI50 with NCI-H460 lung was 3040 nM; in the assay on OVCAR-8 ovarian it was 2170 nM; in the assay with RPMI-8226 leukemia, 2000 nM; with SN12C renal, 1850 nM; in the assay on MALME-3M melanoma it was 1670 nM; with UO-31 renal, 1200 nM. Further, the GI50 with COLO 205 colon is 1640 nM; in the assay on CAKI-1 renal it was 1200 nM; with TK-10 renal, 1830 nM; with EKVX NSCLC it was 1580 nM. Moreover, the TGI in the assay with NCI-H460 lung worked out at 11500 nM; with OVCAR-8 ovarian, 6670 nM; with RPMI-8226 leukemia it was 7090 nM; in the assay with SN12C renal, 3920 nM; with MALME-3M melanoma it was 3530 nM; in the assay on UO-31 renal it was 2540 nM. Besides, the TGI in the assay on COLO 205 colon is 3370 nM; in the assay on CAKI-1 renal, 2620 nM; in the assay on TK-10 renal it was 3300 nM; in the assay with EKVX NSCLC, 3710 nM.
Take `COc1ccc2nc(N/N=C(\C)c3ccccn3)cc(C)c2c1`: the GI50 is 118 nM in the assay with NCI-H460 lung; 286 nM with OVCAR-8 ovarian; 369 nM with RPMI-8226 leukemia; 317 nM in the assay with SN12C renal; 230 nM in the assay on MALME-3M melanoma; 161 nM in the assay on UO-31 renal. The GI50 in the assay with COLO 205 colon is 24 nM; in the assay on CAKI-1 renal it was 271 nM; in the assay on TK-10 renal, 207 nM; in the assay with EKVX NSCLC, 134 nM. For the same molecule, the TGI came to 1130 nM in the assay on NCI-H460 lung; 2530 nM with OVCAR-8 ovarian; 1360 nM with RPMI-8226 leukemia; 1710 nM in the assay on SN12C renal; 697 nM with MALME-3M melanoma; 1080 nM in the assay on UO-31 renal. Besides, the TGI with COLO 205 colon amounted to 1150 nM; in the assay with CAKI-1 renal it was 1170 nM; in the assay with TK-10 renal it was 991 nM; in the assay on EKVX NSCLC, 971 nM.
With `C=CCn1c2c(c3ccccc3c1=O)C(=O)c1ccccc1-2`, the TGI in the assay on NCI-H460 lung, in the assay on OVCAR-8 ovarian, in the assay on RPMI-8226 leukemia, in the assay with SN12C renal, in the assay on MALME-3M melanoma and in the assay with UO-31 renal was over 100000 nM in each case. In addition, the TGI in the assay on COLO 205 colon, with CAKI-1 renal, with TK-10 renal and in the assay on EKVX NSCLC was over 100000 nM throughout.
As to `Nn1c(-c2ccccc2)nc2ccc(Br)cc2c1=O`, the TGI in the assay with NCI-H460 lung, in the assay with OVCAR-8 ovarian, with RPMI-8226 leukemia, in the assay with SN12C renal, with MALME-3M melanoma and in the assay on UO-31 renal was over 100000 nM throughout. The TGI in the assay with COLO 205 colon, in the assay on CAKI-1 renal, in the assay with TK-10 renal and with EKVX NSCLC was over 100000 nM throughout.
Consider `Cc1nc2c(nc1C)C(=O)c1cc(O)ccc1C2=O`, for which the TGI in the assay on NCI-H460 lung is over 100000 nM; in the assay with OVCAR-8 ovarian, over 100000 nM; in the assay on RPMI-8226 leukemia, over 79700 nM; in the assay with SN12C renal it was over 100000 nM; in the assay on MALME-3M melanoma, 43700 nM; in the assay with UO-31 renal it was over 100000 nM. Also, the TGI with COLO 205 colon was 45200 nM; in the assay on CAKI-1 renal it was over 100000 nM; with TK-10 renal, over 100000 nM; in the assay with EKVX NSCLC, over 100000 nM.
Consider `Cc1cc(C)nc(NS(=O)(=O)c2ccc(Nc3c4ccccc4nc4c(C(=O)Nc5ccc(S(=O)(=O)N=C(N)N)cc5)ccc(Cl)c34)cc2)n1`, for which the TGI in the assay on NCI-H460 lung was over 100000 nM; in the assay with OVCAR-8 ovarian, 33400 nM; with RPMI-8226 leukemia, 80100 nM; in the assay with SN12C renal, 80900 nM; in the assay on MALME-3M melanoma, over 100000 nM; with UO-31 renal, 73900 nM. Moreover, the TGI in the assay with COLO 205 colon was over 100000 nM; in the assay with CAKI-1 renal, over 100000 nM; with TK-10 renal, 95500 nM; with EKVX NSCLC, over 100000 nM.
For `C[C@@H]1C[C@@H](O)[C@]2(O)O[C@@H]3C[C@@]4(C=O)[C@@H](CC[C@@H]5[C@@H]4CC[C@]4(C)[C@@H](C6=CC(=O)OC6)CC[C@]54O)C[C@H]3O[C@@H]2O1`, the GI50 in the assay on NCI-H460 lung is 22.9 nM; with OVCAR-8 ovarian, 39.3 nM and 14.3 nM; with SN12C renal, 5 nM; in the assay with MALME-3M melanoma, 25.6 nM and 16.3 nM; in the assay on UO-31 renal, 14.3 nM; in the assay with COLO 205 colon, 108 nM and 25 nM. The GI50 in the assay with CAKI-1 renal was 43.2 nM; with TK-10 renal it was 20.2 nM and 5 nM; in the assay with EKVX NSCLC it was 10.4 nM. In addition, the TGI is 19.5 nM and 81.7 nM and 19.2 nM with NCI-H460 lung; 57 nM and 130 nM and 116 nM with OVCAR-8 ovarian; 75.2 nM with RPMI-8226 leukemia; 89.7 nM and 144 nM and 75.9 nM with SN12C renal; 32 nM and 80.2 nM and 99.4 nM in the assay on MALME-3M melanoma; 55.9 nM and 45.4 nM in the assay on UO-31 renal. Besides, the TGI was 82.6 nM and 277 nM and 91.8 nM in the assay on COLO 205 colon; 48.6 nM and 360 nM in the assay with CAKI-1 renal; 98 nM and 77.5 nM and 55.8 nM in the assay on TK-10 renal; 96.4 nM and 104 nM in the assay on EKVX NSCLC.
Take `Cn1c2c(c3ccccc31)CCN(CCCCN1CCc3c(n(C)c4ccccc34)C1=O)C2`: the TGI in the assay on NCI-H460 lung, in the assay on OVCAR-8 ovarian, with RPMI-8226 leukemia, with SN12C renal, in the assay with MALME-3M melanoma and with UO-31 renal was over 100000 nM in each case. The TGI in the assay on COLO 205 colon, in the assay with CAKI-1 renal, with TK-10 renal and in the assay on EKVX NSCLC was over 100000 nM in each case.
For the molecule `CC(=O)O/C=C(/C=C/OC(C)=O)C(C/C=C(\C)C#CC=C(C)C)OC(C)=O` (centres undefined), the TGI in the assay with NCI-H460 lung, with OVCAR-8 ovarian, in the assay on RPMI-8226 leukemia, in the assay with SN12C renal, with MALME-3M melanoma and in the assay with UO-31 renal was over 100000 nM throughout. Moreover, the TGI is 68500 nM in the assay on COLO 205 colon, over 100000 nM in the assay with CAKI-1 renal, over 100000 nM with TK-10 renal and over 100000 nM in the assay with EKVX NSCLC.
For `Cc1cnc2c(C)ccc([N+](=O)[O-])c2c1NCCCN(C)C`, the TGI in the assay with NCI-H460 lung, with OVCAR-8 ovarian, in the assay on RPMI-8226 leukemia, in the assay on SN12C renal, in the assay with MALME-3M melanoma and with UO-31 renal was over 100000 nM each time. The TGI in the assay on COLO 205 colon, in the assay with CAKI-1 renal, in the assay on TK-10 renal and with EKVX NSCLC was over 100000 nM each time.
Turning to `N#Cc1c(-c2nc3ccccc3s2)c(=O)oc2cc(O)ccc12`, the TGI is over 100000 nM in the assay on NCI-H460 lung; over 100000 nM in the assay with OVCAR-8 ovarian; over 100000 nM in the assay with RPMI-8226 leukemia; over 100000 nM in the assay with SN12C renal; 95900 nM with MALME-3M melanoma; 74900 nM with UO-31 renal. Also, the TGI in the assay with COLO 205 colon was 30800 nM; in the assay on CAKI-1 renal, 85600 nM; in the assay with TK-10 renal it was over 100000 nM; in the assay on EKVX NSCLC, over 100000 nM.

The values are drawn from PubChem BioAssay (NCI).
